According to patent US8735424B2 (Novartis AG, priority 2008, dated 2014):

Key:
[1] = molecular target: PIM1 (Homo sapiens, UniProt P11309); experiment: Pim1 ATP depletion assay; type: biochemical; settings: 20 μM ATP, 2.5 nM PIM1
Method: The activity of PIM1 is measured using a luciferase-luciferin based ATP detection reagent to quantify ATP depletion resulting from kinase-catalyzed phosphoryl transfer to a peptide substrate. Compounds to be tested are dissolved in 100% DMSO and directly distributed into white 384-well plates at 0.5 μl per well. To start the reaction, 10 μl of 5 nM Pim1 kinase and 80 μM BAD peptide (RSRHSSYPAGT-OH) in assay buffer (50 mM HEPES pH 7.5, 5 mM MgCl2, 1 mM DTT, 0.05% BSA) is added into each well. After 15 minutes, 10 μl of 40 μM ATP in assay buffer is added. Final assay concentrations are 2.5 nM PIM1, 20 μM ATP, 40 μM BAD peptide and 2.5% DMSO. The reaction is performed until approximately 50% of the ATP is depleted, then stopped with the addition of 20 μl KinaseGlo Plus (Promega Corporation) solution. The stopped reaction is incubated for 10 minutes and the remaining ATP detected via luminescence on the Victor2 (Perkin Elmer). […] IC50, the half maximal inhibitory concentration, represents the concentration of a test compound that is required for 50% inhibition of its target in vitro.

[2] = molecular target: PIM2 (Homo sapiens, UniProt Q9P1W9); experiment: Pim2 ATP depletion assay; type: biochemical; settings: 4 μM ATP, 5 nM PIM2
Method: The activity of PIM2 is measured using a luciferase-luciferin based ATP detection reagent to quantify ATP depletion resulting from kinase-catalyzed phosphoryl transfer to a peptide substrate. Compounds to be tested are dissolved in 100% DMSO and directly distributed into white 384-well plates at 0.5 μl per well. To start the reaction, 10 μl of 10 nM Pim2 kinase and 20 μM BAD peptide (RSRHSSYPAGT-OH) in assay buffer (50 mM HEPES pH 7.5, 5 mM MgCl2, 1 mM DTT, 0.05% BSA) is added into each well. After 15 minutes, 10 μl of 8 μM ATP in assay buffer is added. Final assay concentrations are 5 nM PIM2, 4 μM ATP, 10 μM BAD peptide and 2.5% DMSO. The reaction is performed until approximately 50% of the ATP is depleted, then stopped with the addition of 20 μl KinaseGlo Plus (Promega Corporation) solution. The stopped reaction is incubated for 10 minutes and the remaining ATP detected via luminescence on the Victor2 (Perkin Elmer).

[3] = molecular target: PIM3 (Homo sapiens, UniProt Q86V86); experiment: Pim3 ATP depletion assay; type: biochemical; settings: 40 μM ATP
Method: The activity of PIM3 is measured using a luciferase-luciferin based ATP detection reagent to quantify ATP depletion resulting from kinase-catalyzed phosphoryl transfer to a peptide substrate. Compounds to be tested are dissolved in 100% DMSO and directly distributed into white 384-well plates at 0.5 μl per well. To start the reaction, 10 μl of 10 nM Pim3 kinase and 200 μM BAD peptide (RSRHSSYPAGT-OH) in assay buffer (50 mM HEPES pH 7.5, 5 mM MgCl2, 1 mM DTT, 0.05% BSA) is added into each well. After 15 minutes, 10 μl of 80 μM ATP in assay buffer is added. Final assay concentrations are 5 nM PIM1, 40 μM ATP, 100 μM BAD peptide and 2.5% DMSO. The reaction is performed until approximately 50% of the ATP is depleted, then stopped by the addition of 20 μl KinaseGlo Plus (Promega Corporation) solution. The stopped reaction is incubated for 10 minutes and the remaining ATP detected via luminescence on the Victor2 (Perkin Elmer).

[4] = tested on: KMS11 cells; experiment: Cell proliferation assay (CellTiter-Glo); type: cell-based; settings: KMS-11, 72 h; KMS11 human myeloma cell line, 3 days
Method: KMS11 (human myeloma cell line), were cultured in IMDM supplemented with 10% FBS, sodium pyruvate and antibiotics. Cells were plated in the same medium at a density of 2000 cells per well into 96 well tissue culture plates, with outside wells vacant, on the day of assay. MM1.s (human myeloma cell line), were cultured in RPMI1640 supplemented with 10% FBS, sodium pyruvate and antibiotics. Cells were plated in the same medium at a density of 5000 cells per well into 96 well tissue culture plates, with outside wells vacant, on the day of assay.
Test compounds supplied in DMSO were diluted into DMSO at 500 times the desired final concentrations before dilution into culture media to 2 times final concentrations. Equal volumes of 2× compounds were added to the cells in 96 well plates and incubated at 37° C. for 3 days.
After 3 days plates were equilibrated to room temperature and equal volume of CellTiter-Glow Reagent (Promega) was added to the culture wells. The plates were agitated briefly and luminescent signal was measured with luminometer. The percent inhibition of the signal seen in cells treated with DMSO alone vs. cells treated with control compound was calculated and used to determine EC50 values (i.e., the concentration of a test compound that is required to obtain 50% of the maximum effect in the cells) for tested compounds, as shown in Example 41.

Chain of PIM1 (P11309 whole entry): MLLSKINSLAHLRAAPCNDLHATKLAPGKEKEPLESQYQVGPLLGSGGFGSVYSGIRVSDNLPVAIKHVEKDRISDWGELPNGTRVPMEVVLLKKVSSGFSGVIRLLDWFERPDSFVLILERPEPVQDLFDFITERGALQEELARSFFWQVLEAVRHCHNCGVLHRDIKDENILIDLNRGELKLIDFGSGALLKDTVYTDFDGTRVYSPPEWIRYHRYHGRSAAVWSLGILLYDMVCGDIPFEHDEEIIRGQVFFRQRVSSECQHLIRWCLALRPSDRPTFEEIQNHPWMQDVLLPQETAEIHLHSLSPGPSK
Chain of PIM2 (Q9P1W9 whole entry): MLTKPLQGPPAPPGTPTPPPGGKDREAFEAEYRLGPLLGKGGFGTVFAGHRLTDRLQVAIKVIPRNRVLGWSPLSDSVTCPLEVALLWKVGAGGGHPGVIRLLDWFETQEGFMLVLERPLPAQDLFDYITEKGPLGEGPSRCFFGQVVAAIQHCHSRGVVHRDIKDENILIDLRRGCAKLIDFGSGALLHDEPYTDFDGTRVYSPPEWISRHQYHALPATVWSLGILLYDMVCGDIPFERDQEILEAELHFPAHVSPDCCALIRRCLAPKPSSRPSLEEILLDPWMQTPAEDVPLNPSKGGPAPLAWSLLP

IC50 [1] | IC50 [2] | IC50 [3] | Structure (SMILES) | EC50 [4]
3 nM | 48 nM | 13 nM | CC(C)NC(=O)c1ccc(F)c(-c2ccc(N)c(-c3cc4c(N5CCC[C@H](N)C5)ccnc4cn3)n2)c1 [Example 10, (S)-3-(5-amino-6-(4-(3-aminopiperidin-1-yl)-1,7-naphthyridin-6-yl)pyridin-2-yl)-4-fluoro-N-isopropylbenzamide] | 3900 nM
2 nM | 59 nM | 3 nM | Nc1ccc(-c2ccccc2F)nc1-c1cc2c(N3CCC[C@H](N)C3)ccnc2cn1 [Example 11, (S)-2-(4-(3-aminopiperidin-1-yl)-1,7-naphthyridin-6-yl)-6-(2-fluorophenyl)pyridin-3-amine] | 5200 nM
9 nM | 98 nM | 21 nM | Nc1ccc(-c2cc(C(=O)Nc3ccccc3)ccc2F)nc1-c1cc2c(N3CCC[C@H](N)C3)ccnc2cn1 [Example 12, (S)-3-(5-amino-6-(4-(3-aminopiperidin-1-yl)-1,7-naphthyridin-6-yl)pyridin-2-yl)-4-fluoro-N-phenylbenzamide] | 4100 nM
3 nM | 54 nM | 4 nM | Nc1ccc(-c2cccs2)nc1-c1cc2c(N3CCC[C@H](N)C3)ccnc2cn1 [Example 13, (S)-2-(4-(3-aminopiperidin-1-yl)-1,7-naphthyridin-6-yl)-6-(thiophen-2-yl)pyridin-3-amine] | 4700 nM
9 nM | 74 nM | 22 nM | Nc1ccc(-c2cc(C(=O)NC3CCCCC3)ccc2F)nc1-c1cc2c(N3CCC[C@H](N)C3)ccnc2cn1 [Example 15, (S)-3-(5-amino-6-(4-(3-aminopiperidin-1-yl)-1,7-naphthyridin-6-yl)pyridin-2-yl)-N-cyclohexyl-4-fluorobenzamide] | 3100 nM
10 nM | 120 nM | 41 nM | CN(C)C(=O)c1ccc(F)c(-c2ccc(N)c(-c3cc4c(N5CCC[C@H](N)C5)ccnc4cn3)n2)c1 [Example 16, (S)-3-(5-amino-6-(4-(3-aminopiperidin-1-yl)-1,7-naphthyridin-6-yl)pyridin-2-yl)-4-fluoro-N,N-dimethylbenzamide] | 4000 nM
2 nM | 71 nM | 4 nM | Nc1ccc(-c2cccc(F)c2F)nc1-c1cc2c(N3CCC[C@H](N)C3)ccnc2cn1 [Example 18, (S)-2-(4-(3-aminopiperidin-1-yl)-1,7-naphthyridin-6-yl)-6-(2,3-difluorophenyl)pyridin-3-amine] | 4900 nM
6 nM | 102 nM | 7 nM | Nc1ccc(-c2ccc(F)cc2)nc1-c1cc2c(N3CCC[C@H](N)C3)ccnc2cn1 [Example 19, (S)-2-(4-(3-aminopiperidin-1-yl)-1,7-naphthyridin-6-yl)-6-(4-fluorophenyl)pyridin-3-amine] | 4000 nM
3 nM | 62 nM | 4 nM | Nc1ccc(-c2ccccc2)nc1-c1cc2c(N3CCC[C@H](N)C3)ccnc2cn1 [Example 20, (S)-2-(4-(3-aminopiperidin-1-yl)-1,7-naphthyridin-6-yl)-6-phenylpyridin-3-amine] | 4200 nM
2 nM | 34 nM | 7 nM | Nc1ccc(-c2ccc(S(N)(=O)=O)cc2)nc1-c1cc2c(N3CCC[C@H](N)C3)ccnc2cn1 [Example 23, (S)-4-(5-amino-6-(4-(3-aminopiperidin-1-yl)-1,7-naphthyridin-6-yl)pyridin-2-yl)benzenesulfonamide] | 7800 nM
2 nM | 34 nM | 7 nM | CS(=O)(=O)c1ccc(-c2ccc(N)c(-c3cc4c(N5CCC[C@H](N)C5)ccnc4cn3)n2)cc1 [Example 24, (S)-2-(4-(3-aminopiperidin-1-yl)-1,7-naphthyridin-6-yl)-6-(4-(methylsulfonyl)phenyl)pyridin-3-amine] | 1200 nM
6 nM | 60 nM | 7 nM | N[C@H]1CCCN(c2ccnc3cnc(-c4cccc(-c5nccs5)n4)cc23)C1 [Example 25, (S)-1-(6-(6-(thiazol-2-yl)pyridin-2-yl)-1,7-naphthyridin-4-yl)piperidin-3-amine] | 590 nM
10 nM | 45 nM | 10 nM | N[C@H]1CCCN(c2ccnc3ccc(-c4cccc(-c5nccs5)n4)cc23)C1 [Example 27, (S)-1-(6-(6-(thiazol-2-yl)pyridin-2-yl)quinolin-4-yl)piperidin-3-amine] | 940 nM
7 nM | 68 nM | 7 nM | N[C@H]1CCCN(c2ccnc3ccc(-c4nccc(-c5nccs5)n4)cc23)C1 [Example 28, (S)-1-(6-(4-(thiazol-2-yl)pyrimidin-2-yl)quinolin-4-yl)piperidin-3-amine] | 770 nM
5 nM | 12 nM | 6 nM | C[C@@H]1C[C@H](N)CN(c2ccnc3ccc(-c4cccc(-c5nccs5)n4)cc23)C1 [Example 31, (3S,5R)-5-methyl-1-(6-(6-(thiazol-2-yl)pyridin-2-yl)quinolin-4-yl)piperidin-3-amine] | 790 nM
